Holding throughout (format): biochemical
One experiment has as its system citrate plasma. Briefly: prothrombin time (PT) plasma clotting test. Particulars: Table 3; twofold prolongation compared to control; read-out: A: anticoagulant IC50, PT. The protocol: Anticoagulant activity (i.e. inhibition of the proteolytic reactions in the process) is measured by anticoagulant tests, e.g. in the thrombin time (TT), activated partial thromboplastin time (APTT) and prothrombin time (PT) tests [E. J. W. Bovie et al., Mayo Clinic Laboratory Manual of Haemostasis; W. B. Saunders Co., Philadelphia (1971)]. Plasma, inhibited in spontaneous coagulation, e.g. citrate-plasma, is made to coagulate and the required coagulation time is measured. Upon the action of anticoagulants the coagulation time is prolonged proportionally to the inhibition of the reaction(s) in the process. The anticoagulant effect can be characterised by the substance concentration required to prolong the coagulation time twofold compared to the control (IC50). The effect of anticoagulants on individual coagulant proteases is measured by the amidolytic method [R. Lottenberg et al., Methods in Enzymol. 80, 341 (1981); G. Cleason, Blood Coagulation and Fibrinolysis 5, 411 (1994)]. The isolated active factor (e.g. thrombin, fXa) and its chromogen or fluorogen peptide-amide substrate are reacted in the presence or absence of the inhibitor, resp. The enzyme inhibiting action is characterised by the inhibitory constant (IC50) measured during amidolysis.
In the TT test coagulation is initiated by the thrombin added to the citrate plasma. In the system 22 pmol/ml of thrombin is functioning and its inhibition can be measured on the fibrinogen (one of the natural substrates of thrombin) in the presence of plasma components. In the APTT and PT tests the full coagulation process takes place. Depending on the activator fX is activated either by the extrinsic or the intrinsic pathway. The generated fXa activates prothrombin to thrombin which, in turn, triggers plasma coagulation. The coagulation time is prolonged if the enzymes or one of them is inhibited by the inhibitor. In the APTT and PT tests at most 40 pmol/ml Xa can be generated (this is the full amount of factor X present in both systems) while 150 pmol/ml (APTT) and 350 pmol/ml (PT) of thrombin are generated [B. Kaiser et al., Thromb. Res. 65, 157 (1992)].
The in vitro anticoagulant effects of the compounds of general formula (I) was measured by the prothrombin time (PT), activated partial thromboplastin time (APTT) and thrombin time (TT) tests [D. Bagdy et al., Thromb. Haemost. 67, 325 (1992)]. The fxa-inhibiting effect of the compounds was also determined using the Bz-Ile-Glu-Gly-Arg-pNA chromogen substrate (see method M6).

For experiment [1], the target named is tissue plasminogen activator (tPA) (Homo sapiens, UniProt P00750). Briefly: fibrin-plate method, plasmin formation induced by tPA. The text has this: (§1) The inhibitory effect of the new compounds of the invention on plasmin (PL) as well as on plasmin formation induced by tissue plasminogen activator (tPA) and urokinase (UK) was examined by the fibrin-plate method [D. Bagdy et al.: Thromb. Haemost. 67, 325 (1992)]. Compounds C1 and C5 served as controls. […] V. Jackson et al.: J. Cardiovasc. Pharmacol. 21, 587 (1993))]. In Table 4 the results obtained with the new compounds 1 and 2 as well as those with controls C1 and C5 are presented as an example.
tissue plasminogen activator (tPA), sequence (P00750 36-562, species assumed): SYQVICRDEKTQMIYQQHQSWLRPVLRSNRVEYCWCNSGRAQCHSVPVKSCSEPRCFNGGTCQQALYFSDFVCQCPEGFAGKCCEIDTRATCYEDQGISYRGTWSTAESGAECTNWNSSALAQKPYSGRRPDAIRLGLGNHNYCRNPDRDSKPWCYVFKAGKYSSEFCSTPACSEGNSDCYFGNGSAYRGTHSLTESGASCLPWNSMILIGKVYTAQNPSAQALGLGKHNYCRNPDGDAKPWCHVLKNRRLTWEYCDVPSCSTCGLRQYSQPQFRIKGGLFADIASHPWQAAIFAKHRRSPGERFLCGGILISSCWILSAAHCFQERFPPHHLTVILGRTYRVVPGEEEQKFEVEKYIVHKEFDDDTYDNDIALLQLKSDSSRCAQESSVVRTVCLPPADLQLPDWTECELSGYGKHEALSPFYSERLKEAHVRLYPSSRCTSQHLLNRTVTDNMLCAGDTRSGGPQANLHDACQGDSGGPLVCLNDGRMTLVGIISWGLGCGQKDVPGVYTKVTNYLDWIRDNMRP

For another experiment, the target named is plasmin (PL) (Homo sapiens, UniProt P00747). Briefly: fibrin-plate method, plasmin.
plasmin (PL), sequence (P00747 581-810 limits assumed, species assumed): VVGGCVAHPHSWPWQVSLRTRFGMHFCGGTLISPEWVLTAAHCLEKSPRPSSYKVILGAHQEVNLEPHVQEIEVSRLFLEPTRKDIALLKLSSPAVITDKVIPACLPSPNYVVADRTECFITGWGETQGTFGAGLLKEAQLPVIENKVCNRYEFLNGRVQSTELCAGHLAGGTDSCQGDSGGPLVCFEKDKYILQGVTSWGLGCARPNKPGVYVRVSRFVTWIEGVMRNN
plasmin (PL), sequence (P00747 97-580 partner limits assumed, species assumed): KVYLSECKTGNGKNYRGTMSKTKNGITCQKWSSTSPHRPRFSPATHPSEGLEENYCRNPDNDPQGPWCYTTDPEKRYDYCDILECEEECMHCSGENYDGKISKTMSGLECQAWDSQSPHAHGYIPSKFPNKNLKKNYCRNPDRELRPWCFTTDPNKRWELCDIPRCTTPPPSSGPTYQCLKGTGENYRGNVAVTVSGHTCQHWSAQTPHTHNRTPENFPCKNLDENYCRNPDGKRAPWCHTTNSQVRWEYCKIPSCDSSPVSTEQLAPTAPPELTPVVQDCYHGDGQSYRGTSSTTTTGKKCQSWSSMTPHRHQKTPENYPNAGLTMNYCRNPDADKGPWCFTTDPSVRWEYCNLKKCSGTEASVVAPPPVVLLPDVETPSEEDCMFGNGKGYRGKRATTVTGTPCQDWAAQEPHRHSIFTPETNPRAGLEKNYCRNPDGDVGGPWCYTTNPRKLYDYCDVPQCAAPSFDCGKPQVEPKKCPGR
Excerpt: as §1

For another experiment, the target named is T1, clot-bound thrombin (Homo sapiens, UniProt P00734).
T1 construct: from tissue; host or cells: clot of recalcified human platelet-rich plasma
Put plainly: inhibition of plasma clot-bound thrombin (Methods M1, M3). Conditions: clot from platelet-rich human plasma; Tos-Gly-Pro-Arg-pNA substrate. Here is the method:
Plasma-clot was obtained by recalcificating platelet-rich human plasma, and fibrin gel by clotting human fibrinogen with human thrombin. For the activity measures of fXa and thrombin Z-D-Arg-Gly-Arg-pNA or Tos-Gly-Pro-Arg-pNA substrates were used in agreement with Methods M1-M3.
Preparation of Clots from Human Plasma
a) Platelet-rich plasma is prepared by centrifuging a 9:1 mixture of human blood and 3.8% sodium citrate solution for 5 min. at 240×g.
b) 200 μl platelet-rich plasma and 80 μl 40 mM CaCl2 solution are allowed to stand at room temperature for 1 hour. The thus-formed clot is washed with 6×2 ml of 0.9% NaCl solution with gentle stirring to remove the residual enzymes (thrombin and factor Xa). The washing medium is assayed for thrombin-like activity as follows:
c) To 400 μl of washing medium 100 μl of 1 mM Tos-Gly-Pro-Arg-pNA substrate solution is added, the mixture is incubated for 30 min at 37° C., then the reaction is stopped with 100 μl of 50% acetic acid. From this mixture 150 μl aliquots are applied onto a 96-well microtitre plate and the extinction coefficients are measured at 405 nm (ELISA READER SLT Laborinstrument GmbH, Austria). In case of efficient washing the extinction coefficient is smaller than 5% of that of the control.
Determination of the Inhibition of Clot-bound Thrombin
a) Solutions are made from the peptide inhibitors according to Method M2/a.
b) After draining off the washing medium the clots (Method M1) are mixed with 400 μl of peptide solution (3 parallel samples with each concentration), then the samples are incubated for 5 min. at 37° C. together with a separate 400 μl buffer serving as control. Then 100 μl […] 1 mM Tos-Gly-Pro-Arg-pNA substrate solution is added and the incubation continued for further 30 min. at 37° C. The experiment is continued according to M2/c.

Where [2] appears, read: fibrin plate, hydrolysed area reduced to 50% of control.
The mark [3] stands for this setting: related to the activity of C1 (1/IC50 = 1).

SMILES strings stand for the structures.

Take `CCOC(=O)N[C@H](CC1CCC1)C(=O)N1CCC[C@H]1C(=O)N[C@H](C=O)CCCNC(=N)N` [Example 1, Ethoxycarbonyl-3-cyclobutyl-D-alanyl-L-prolyl-L-arginine aldehyde]: the IC50 came out at 1.15 µM in the experiment with citrate plasma, 27 µM in experiment [1] (setting [2]), 39 µM against plasmin (PL) (setting [2]) and 0.39 µM against clot-bound thrombin. Also, in experiment [1] (setting [3]), the “B: relative efficiency, tPA” value is 4.9. Also, the “activity against tPA, times lower than that of compound C5” value in experiment [1] (text b147, second of three enzymes) stood at 4.5 times. The “B: relative efficiency, PL” value at plasmin (PL) (setting [3]) was found to be 1.4. At plasmin (PL) (text b147, first of three enzymes), the “activity against PL, times lower than that of compound C5” value came to 3.2 times.

The term IC50 denotes the concentration needed to halve the response being measured.

The values are drawn from patent publication US6235707A, “Anticoagulant peptidyl-arginine aldehyde derivatives” (Gyogyszerkutato Intezet Kft., priority 1996, dated 2001).
